Source: EP4467141A1, “PYRAZOLO-QUINOLINES AS SELECTIVE INHIBITORS OF GENOTOXIC STRESS-INDUCED IKK/NF- KB PATHWAYS FOR CANCER THERAPY” (Max-Delbrück-Centrum für Molekulare Medizin in der …, priority 2023, dated 2024)

Columns and labels:
EPHB3 = biological target: T1, EPHB3 (Homo sapiens, UniProt P54753); assay: Kinase panel study; type: biochemical; conditions: read-out: Percentage of inhibition; for inhibition at 1 µM: 1000nM; for inhibition at 10 µM: 10000nM
T1 construct: purchased Thermo Fisher Scientific
T1 sequence (P54753 34-998): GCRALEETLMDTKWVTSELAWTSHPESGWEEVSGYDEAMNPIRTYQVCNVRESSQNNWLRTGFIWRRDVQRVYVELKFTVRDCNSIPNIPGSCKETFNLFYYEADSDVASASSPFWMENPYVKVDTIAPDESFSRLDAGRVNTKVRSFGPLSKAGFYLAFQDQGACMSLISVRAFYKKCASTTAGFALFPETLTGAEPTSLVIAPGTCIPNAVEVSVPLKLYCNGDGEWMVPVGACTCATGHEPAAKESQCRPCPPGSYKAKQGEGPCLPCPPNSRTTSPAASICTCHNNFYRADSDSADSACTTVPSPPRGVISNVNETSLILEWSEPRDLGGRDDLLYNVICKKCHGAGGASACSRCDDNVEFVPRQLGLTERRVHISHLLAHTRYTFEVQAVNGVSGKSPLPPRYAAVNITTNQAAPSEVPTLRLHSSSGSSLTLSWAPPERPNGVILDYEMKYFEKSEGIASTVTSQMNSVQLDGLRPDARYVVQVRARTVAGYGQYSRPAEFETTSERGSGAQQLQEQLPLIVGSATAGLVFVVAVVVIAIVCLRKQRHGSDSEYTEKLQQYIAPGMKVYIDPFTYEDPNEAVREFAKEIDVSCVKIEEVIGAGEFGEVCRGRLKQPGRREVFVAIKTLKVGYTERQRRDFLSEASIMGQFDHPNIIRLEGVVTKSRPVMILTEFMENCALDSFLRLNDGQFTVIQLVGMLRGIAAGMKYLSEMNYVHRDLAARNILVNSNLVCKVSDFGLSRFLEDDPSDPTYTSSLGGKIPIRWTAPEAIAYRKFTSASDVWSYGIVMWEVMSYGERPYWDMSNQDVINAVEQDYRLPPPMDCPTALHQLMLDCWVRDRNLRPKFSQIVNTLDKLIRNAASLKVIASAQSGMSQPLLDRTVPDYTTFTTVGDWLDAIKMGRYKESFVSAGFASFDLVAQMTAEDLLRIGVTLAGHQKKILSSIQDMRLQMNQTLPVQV
In short: (§1)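 Kinase inhibition was determined by a contract provider in cell-free ZLyte or Adapta assays. Results are expressed as % inhibition at 10 or 1 µM.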

PRKCZ (PKC zeta) = biological target: T2, PRKCZ (PKC zeta) (Homo sapiens, UniProt Q05513); assay: Kinase panel study; type: biochemical; conditions: read-out: Percentage of inhibition; for inhibition at 1 µM: 1000nM; for inhibition at 10 µM: 10000nM
T2 construct: purchased Thermo Fisher Scientific
T2 sequence (Q05513 1-592): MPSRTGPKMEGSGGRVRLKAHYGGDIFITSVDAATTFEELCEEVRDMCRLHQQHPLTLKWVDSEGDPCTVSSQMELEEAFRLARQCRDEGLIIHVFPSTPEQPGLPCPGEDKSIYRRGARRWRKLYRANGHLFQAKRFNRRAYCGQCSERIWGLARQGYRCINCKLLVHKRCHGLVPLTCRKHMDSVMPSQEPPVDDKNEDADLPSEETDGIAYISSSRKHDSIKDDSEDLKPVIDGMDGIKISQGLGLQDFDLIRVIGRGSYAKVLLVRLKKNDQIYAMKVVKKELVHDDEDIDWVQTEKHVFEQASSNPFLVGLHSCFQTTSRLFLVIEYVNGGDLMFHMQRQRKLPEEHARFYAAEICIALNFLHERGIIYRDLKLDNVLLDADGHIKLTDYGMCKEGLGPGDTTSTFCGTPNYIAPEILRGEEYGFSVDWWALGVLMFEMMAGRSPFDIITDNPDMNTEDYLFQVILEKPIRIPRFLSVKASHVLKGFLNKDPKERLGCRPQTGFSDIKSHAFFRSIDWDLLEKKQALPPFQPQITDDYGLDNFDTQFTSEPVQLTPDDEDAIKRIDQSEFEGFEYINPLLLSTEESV
In short: as §1

SMILES | inhibition at 1 µM (EPHB3) [%] | inhibition at 10 µM (EPHB3) [%] | inhibition at 1 µM (PRKCZ (PKC zeta)) [%] | inhibition at 10 µM (PRKCZ (PKC zeta)) [%]
COc1ccc2c(c1OC)c(=O)n1c3ccc(O)cc3c3ccnc2c31 [MW01, 5-Hydroxy-10,11-dimethoxy-9H-benzo[c]indolo[3,2,1-ij][1,5]naphthyridin-9-one] | 1 | 11 | 18 | 10
COc1ccc2cc3c(N)nn(C(=O)c4cccc(N(C)C)c4)c3nc2c1 [MW05, (3-Amino-7-methoxypyrazolo[3,4-b]quinolin-1-yl)-[3-(dimethylamino)phenyl]methanone] | 6 | 5 | 16 | -4
